According to PMC11940343, “In Vitro and In Vivo Evaluation of the De Novo Designed Antimicrobial Peptide P6.2 Against a KPC-Producing P. aeruginosa Clinical Isolate” (Biomolecules, 2025):
No end group written: not given here.

Tests used:
[1] = tested on: Pseudomonas aeruginosa M13513; assay: MIC by broth microdilution (CLSI); type: cell-based; details: CAMHB, two consecutive values shown where replicates varied by one dilution
Source text: Pseudomonas aeruginosa M13513 is a clinical isolate carrying the carbapenemase KPC-2 (blaKPC-2 gene). This strain was generously supplied by the Servicio Antimicrobianos, Instituto Nacional de Enfermedades Infecciosas (INEI)-ANLIS “Dr. Carlos G. Malbrán” in Buenos Aires, Argentina.
For antimicrobial testing, bacterial cultures were maintained in Cation-Adjusted Mueller–Hinton Broth (CAMHB), following Clinical and Laboratory Standards Institute (CLSI) guidelines.
The minimal inhibitory concentration was assessed using a standard microdilution assay, following CLSI guidelines. Mueller–Hinton Broth (Laboratorios Britania S.A., Buenos Aires, Argentina) supplemented with Ca^2+ (20–25 mg/L) and Mg^2+ (10–12.5 mg/L) was used for the assay. The bacterial strains tested included Pseudomonas aeruginosa PAO1, Pseudomonas aeruginosa M13513, and Staphylococcus aureus ATCC® 25923.

[2] = affinity towards eukaryotic and prokaryotic membranes; cited from earlier work
Source text: (§1) Peptide 6.2 (P6.2) is a de novo designed antimicrobial peptide, with an amphipathic alfa helical structure.

mice erythrocytes = details: cited from earlier work
Source text: as §1

P. aeruginosa M13513 [3] = assay: Eradication of pre-formed biofilm and cell viability (crystal violet, MTT, CLSM); type: cell-based, Pseudomonas aeruginosa; details: 1xMIC to 8xMIC
Procedure: Biofilms of P. aeruginosa M13513 were grown in 96-well flat-bottom polystyrene plates using CAMHB for 24 h. Once the biofilms were established, the supernatant was removed, and 100 µL of CAMHB containing two-fold serial dilutions of antimicrobials were added to each well. The plates were then incubated for an additional 24 h at 37 °C.
For each experiment, two sets of plates were prepared: one for biofilm quantification using the crystal violet (CV) staining method described earlier, and another to assess bacterial cell viability within the biofilm using the MTT assay (3-(4,5-dimethylthiazol-2-yl)-2,5-diphenyltetrazolium bromide). To perform the MTT assay, the medium was carefully removed, and biofilms were washed three times with 200 µL of saline solution. Subsequently, 100 µL of a 0.05% (w/v) MTT solution was added to each well, and the plates were incubated in the dark at 37 °C for 3 h.
Following incubation, the supernatant was discarded, and the resulting formazan crystals were dissolved in 100 µL of DMSO. The samples were then homogenized by orbital shaking for 10 min. Finally, absorbance was measured at 570 nm using a microplate reader. […]
The proportion of live and dead bacteria was determined by analyzing three representative images from each biofilm sample using the ImageJ software 1.52v with the FIJI plugin.

P. aeruginosa M13513 [4] = assay: Galleria mellonella larval infection model; type: in vivo
Source text: Lepidoptera were reared in the laboratory in a standardized manner. A breeding colony was established, and the different stages of the insect’s life cycle were documented. Adult insects were housed in a plastic container without access to food, allowing for the collection of eggs. Then, eggs and larvae were placed in containers with fresh food, prepared from autoclaved wheat bran (50%), dry yeast (5%), beeswax (6%), honey (26%), and glycerin (13%). In each growth cycle, a pool of larvae was reserved to progress to pupa and adult generation. The larvae and eggs were kept at room temperature during the warm seasons and in an oven with humidity control at 30 °C during the cold seasons. For each experiment, a group of late-stage caterpillars was set aside and kept in the dark at a temperature of 10–12 °C, ensuring their use within one week of collection. For the in vivo tests, larvae of approximately 2 cm in length and an average weight of 250 mg were used. This average weight was used to calculate the antimicrobial doses. The bacterial inoculum used in the larval infection models was prepared from an ON culture, which was washed twice with physiological saline solution and adjusted by measuring OD600nm. […] The larvae were incubated at 37 °C, and their survival was monitored for five days.

GLLRKWGKKWKEFLRRVWK-NH2 [Peptide P6.2]
MIC [1]: 32/64 | membrane selectivity [2]: selectivity for bacterial membranes | erythrocytes lysis (mice erythrocytes): less than 10% | bacterial viability inside the pre-formed biofilm (P. aeruginosa M13513 [3]; MTT assay, confirmed by SYTO9/PI confocal microscopy): significantly decreased the bacterial viability inside the biofilm | pre-formed biofilm mass (P. aeruginosa M13513 [3]; crystal violet, 24 h treatment): diminished the biofilm mass | survival compared with meropenem 2.5 alone (log-rank test) (P. aeruginosa M13513 [4]; P6.2 5 + Mer 2.5 vs Mer 2.5): not significative differences | prevention of larvae death (P. aeruginosa M13513 [4]; peptide alone, 2.5-80 mg/kg single injection 1 h post infection, 10^3 CFU/larva, n = 10, 5 days): not effective
